Read-outs that look alike come from different tables or passages of the source.
Legend:
GA-M4M12 × RHA274 = assay: Test A field trial, phytotoxicity, variety C; type: in vivo, sunflower
Description: (§1) To generate the hybrids C, D and E, the fourth generation self-pollinated maintainer mutant lines M4M12, M4M11 and M4M7 were chemically sterilized by applying at the bud “star” flower stage a small amount of gibberellic acid solution to sterilize the pollen according to the general method described in Sunflower Science Technology, J. F. Carter ed. (Number 19 in the series “Agronomy”) pp. 339-386. This treatment enables maintainer plants to behave as CMS inbred lines and allows the production of heterozygous resistant hybrids, with the herbicide resistant source coming from the female side. Such crosses allowed evaluating the sexual effect of the mutation source when introduced on the female side of a cross as described in crosses C, D and E versus the male side of a cross as described in crosses F, G and H. Labels I, J and K identify third generation CMS mutant lines crossed with fourth generation maintainer lines to maintain the highly heritable mutant trait in a male sterile homozygous resistant environment. One skilled in sunflower breeding art understands the meaning of such crosses.
(§2) A rating of 0% phytotoxicity means no crop injury.

BC3-M4M12 = assay: Test A field trial, phytotoxicity, variety I; type: in vivo, sunflower
Description: as §1, §2

Orobanche cumana = assay: Test E control of Orobanche cumana in resistant sunflower hybrid; type: in vivo; conditions: for relative efficacy in controlling Orobanche: Test E rates, metsulfuron-methyl compared with tribenuron-methyl
Description: The effect of the various treatments was evaluated 35 days after sowing. The sunflower roots were cleaned by washing in water, and the presence of Orobanche nodules was determined visually and by weighing root wet mass in comparison to check plants free of Orobanche infestation. […] The nodules caused by Orobanche increased root weight, and a correlation (r=0.7) was found between visual scores and weight measurements. Thus the weighing technique could be used to corroborate visual efficacy scorings. Orobanche emergence was also scored but found to be less useful to evaluate treatment efficiency at the evaluation timing of this test.
Based on the results from Test D, a modified protocol was developed to include three timings of post-emergence treatment. The hybrid BC4-M5M12 (female parent)×PHA155 restorer line (male parent) described in Test C was used in this test. Various herbicide programs were tested using three replications. […] Seed coatings of these formulated herbicides were applied to 6 kg of seeds in such amount that considering the distribution of the coated seeds in each pot, the herbicide active ingredient (a.i.) application rates per hectare were as indicated.
The treatments were applied similar to the methods described for Test D. Pre-emergence applications were broadcast only, not soil incorporated. For pre-emergence application, the pots were sprayed using the high rates of the herbicides two days after sowing the sunflower seeds. Post-emergence treatments were applied at the 4-6 leaf stage of sunflower (corresponding to early stage of Orobanche attachment; identified as “T1”), the 6-8 leaf stage of sunflower (corresponding to the mid stage of Orobanche attachment; nodules <5 mm diameter; identified as “T2”) and 8-12 leaf stage of sunflower (corresponding to late stage of Orobanche attachment; identified as “T3”). The mid-stage applications included the high as well as low application rates of each herbicide.
For comparison were also included in this test other acetolactate synthase-inhibiting herbicides reported in the literature as giving good weed control of Orobanche (L. García-Torres et al., Weed Research 1994, 34, 395-402; L. García-Torres et al., Weed Technology 1995, 9, 819-824; J. Hershenhorn et al., Weed Technology 1998, 12, 108-114).

BC3-M4M11 = assay: Test A field trial, phytotoxicity, variety J; type: in vivo, sunflower
Description: as §1, §2

GA-M4M7 × RHA274 = assay: Test A field trial, phytotoxicity, variety E; type: in vivo, sunflower
Description: as §1, §2

GA-M4M11 × RHA274 = assay: Test A field trial, phytotoxicity, variety D; type: in vivo, sunflower
Description: as §1, §2

H89A × M4M12 = type: in vivo, sunflower; conditions: variety F
H89A × M4M11 = type: in vivo, sunflower; conditions: variety G
Summary of the method: (§3)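 Maintainer mutant lines M4M12, M4M11 and M4M7 (fourth self-pollinated generation) chemically sterilized with gibberellic acid at bud "star" flower stage, then used as female parents so herbicide-resistance source comes from female side. Phytotoxicity rated as % crop injury; 0% means no injury.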

H89A × M4M7 = type: in vivo, sunflower; conditions: variety H
[1] = test system: Inbred line control: H89A; type: in vivo, sunflower; conditions: variety B
Summary of the method: as §3

[2] = test system: Hybrid control: H89A × RHA274; type: in vivo, sunflower; conditions: variety A
Summary of the method: as §3

[3] = test system: mutants originating from M11 and M12; conditions: tribenuron-methyl up to 60 g a.i./ha; others at Test G rates
Description: This test involved sulfonylurea-resistant sunflower progeny BC2-M3M11 and BC2-M3M12, derived from M11 and M12, respectively. Also, a sulfonylurea-susceptible hybrid, H89A×RHA274, was included for comparison. Plants were sprayed with formulated herbicides at the 4-leaf stage. The efficacy of the treatments on the sunflowers was visually rated 4 weeks after application, using a scale where 0 means no control of the sunflowers, 85 means sufficient efficacy level to stop plants from flowering and propagating, and 100 means a complete destruction of the mutants.
Weed control in sugar beet requires 2-3 herbicide applications per season to efficiently control weeds in this slow growing crop.

BC2-M3M12 = assay: Test G control of volunteer sunflower, BC2-M3M12; type: in vivo; conditions: rated 4 weeks after application, scale 0-100
[4] = test system: H89A × RHA274 (sulfonylurea-susceptible hybrid); assay: Test G control of volunteer sunflower, H89A × RHA274; type: in vivo; conditions: rated 4 weeks after application, scale 0-100
BC3-M4M7 = assay: Test A field trial, phytotoxicity, variety K; type: in vivo, sunflower
Description: as §1, §2

BC2-M3M11 = assay: Test G control of volunteer sunflower, BC2-M3M11; type: in vivo; conditions: rated 4 weeks after application, scale 0-100
[5] = 6 g a.i./ha post-emergence, without Citowet

## COC(=O)c1ccccc1S(=O)(=O)NC(=O)N(C)c1nc(C)nc(OC)n1 [Tribenuron-methyl, tribenuron-methyl]
GA-M4M12 × RHA274; in vivo
  Maximum Phytotoxicity: 0%
BC3-M4M12; in vivo
  Maximum Phytotoxicity: 4%
Orobanche cumana; 22.5 g a.i./ha printed in pre-emergence column (first such row, r7), host BC4-M5M12 × PHA155
  Control: 70%
Orobanche cumana; post-emergence 11.25 + 11.25 g a.i./ha at T1 + T3
  Control: 90%
Orobanche cumana; post-emergence 22.5 g a.i./ha at T2
  Control: 75%
Orobanche cumana; pre-emergence 11.25 + post-emergence 11.25 g a.i./ha at T2
  Control: 78%
Orobanche cumana; pre-emergence 22.5 g a.i./ha (r18)
  Control: 0%
Orobanche cumana; seed coating 11.25 + post-emergence 11.25 g a.i./ha at T2
  Control: 88%
BC3-M4M11; in vivo
  Maximum Phytotoxicity: 0%
GA-M4M7 × RHA274; in vivo
  Maximum Phytotoxicity: 2%
GA-M4M11 × RHA274; in vivo
  Maximum Phytotoxicity: 6%
H89A × M4M12; 22.5 g a.i./ha post-emergence
  Maximum Phytotoxicity: 0%
H89A × M4M11; 22.5 g a.i./ha post-emergence
  Maximum Phytotoxicity: 3%
H89A × M4M7; 22.5 g a.i./ha post-emergence
  Maximum Phytotoxicity: 0%
[1]; 22.5 g a.i./ha post-emergence
  Maximum Phytotoxicity: 100%
[2]; 22.5 g a.i./ha post-emergence
  Maximum Phytotoxicity: 100%
[3]
  resistance/tolerance of the mutants: excellent to very good level of resistance
BC2-M3M12; 10 g a.i./ha
  Efficacy on BC2-M3M12: 0
BC2-M3M12; 20 g a.i./ha
  Efficacy on BC2-M3M12: 0
BC2-M3M12; 40 g a.i./ha
  Efficacy on BC2-M3M12: 0
BC2-M3M12; 60 g a.i./ha
  Efficacy on BC2-M3M12: 14
[4]; 10 g a.i./ha, 4-leaf stage
  Efficacy on H89A × RHA274: 100
[4]; 20 g a.i./ha
  Efficacy on H89A × RHA274: 100
[4]; 40 g a.i./ha
  Efficacy on H89A × RHA274: 100
[4]; 60 g a.i./ha
  Efficacy on H89A × RHA274: 100
BC3-M4M7; in vivo
  Maximum Phytotoxicity: 4%
BC2-M3M11; 10 g a.i./ha
  Efficacy on BC2-M3M11: 0
BC2-M3M11; 20 g a.i./ha
  Efficacy on BC2-M3M11: 0
BC2-M3M11; 40 g a.i./ha
  Efficacy on BC2-M3M11: 3
BC2-M3M11; 60 g a.i./ha
  Efficacy on BC2-M3M11: 10

## COC(=O)c1cccc(C)c1S(=O)(=O)NC(=O)Nc1nc(OCC(F)(F)F)nc(N(C)C)n1 [Triflusulfuron-methyl, triflusulfuron-methyl]
GA-M4M12 × RHA274; variety C, 20 g a.i./ha post-emergence
  Maximum Phytotoxicity: 19%
GA-M4M12 × RHA274; variety C, 40 g a.i./ha post-emergence
  Maximum Phytotoxicity: 38%
BC3-M4M12; variety I, 20 g a.i./ha post-emergence
  Maximum Phytotoxicity: 4%
BC3-M4M12; variety I, 40 g a.i./ha post-emergence
  Maximum Phytotoxicity: 13%
Orobanche cumana
  relative efficacy in controlling Orobanche: less efficacious in controlling Orobanche
Orobanche cumana; post-emergence 18.75 g a.i./ha at T2
  Control: 75%
BC3-M4M11; variety J, 20 g a.i./ha post-emergence
  Maximum Phytotoxicity: 6%
BC3-M4M11; variety J, 40 g a.i./ha post-emergence
  Maximum Phytotoxicity: 14%
GA-M4M7 × RHA274; variety E, 20 g a.i./ha post-emergence
  Maximum Phytotoxicity: 20%
GA-M4M7 × RHA274; variety E, 40 g a.i./ha post-emergence
  Maximum Phytotoxicity: 38%
GA-M4M11 × RHA274; variety D, 20 g a.i./ha post-emergence
  Maximum Phytotoxicity: 19%
GA-M4M11 × RHA274; variety D, 40 g a.i./ha post-emergence
  Maximum Phytotoxicity: 40%
H89A × M4M12; 20 g a.i./ha post-emergence
  Maximum Phytotoxicity: 16%
H89A × M4M12; 40 g a.i./ha post-emergence
  Maximum Phytotoxicity: 33%
H89A × M4M11; 20 g a.i./ha post-emergence
  Maximum Phytotoxicity: 15%
H89A × M4M11; 40 g a.i./ha post-emergence
  Maximum Phytotoxicity: 36%
H89A × M4M7; 20 g a.i./ha post-emergence
  Maximum Phytotoxicity: 10%
H89A × M4M7; 40 g a.i./ha post-emergence
  Maximum Phytotoxicity: 33%
[1]; 20 g a.i./ha post-emergence
  Maximum Phytotoxicity: 100%
[1]; 40 g a.i./ha post-emergence
  Maximum Phytotoxicity: 100%
[2]; 20 g a.i./ha post-emergence
  Maximum Phytotoxicity: 100%
[2]; 40 g a.i./ha post-emergence
  Maximum Phytotoxicity: 100%
[3]
  resistance/tolerance of the mutants: to a lesser extent than with tribenuron-methyl
BC2-M3M12; 15 g a.i./ha
  Efficacy on BC2-M3M12: 8
[4]; 15 g a.i./ha
  Efficacy on H89A × RHA274: 82
BC3-M4M7; variety K, 20 g a.i./ha post-emergence
  Maximum Phytotoxicity: 8%
BC3-M4M7; variety K, 40 g a.i./ha post-emergence
  Maximum Phytotoxicity: 10%
BC2-M3M11; 15 g a.i./ha
  Efficacy on BC2-M3M11: 13

## COC(=O)c1ccccc1S(=O)(=O)NC(=O)Nc1nc(C)nc(OC)n1 [Metsulfuron-methyl, metsulfuron-methyl]
GA-M4M12 × RHA274; in vivo
  Maximum Phytotoxicity: 8%
BC3-M4M12; in vivo
  Maximum Phytotoxicity: 7%
Orobanche cumana
  relative efficacy in controlling Orobanche: more efficacious in controlling Orobanche
Orobanche cumana; post-emergence 3 + 3 g a.i./ha at T1 + T3
  Control: 96%
Orobanche cumana; post-emergence 3 + 3 g a.i./ha at T1 + T3, listed as metsulfuron-methyl
  Control: excellent level of Orobanche control
Orobanche cumana; post-emergence 6 g a.i./ha at T2
  Control: 97%
Orobanche cumana; pre-emergence 3 + post-emergence 3 g a.i./ha at T2
  Control: 87%
Orobanche cumana; pre-emergence 6 g a.i./ha (r19)
  Control: 30%
BC3-M4M11; in vivo
  Maximum Phytotoxicity: 11%
GA-M4M7 × RHA274; in vivo
  Maximum Phytotoxicity: 0%
GA-M4M11 × RHA274; in vivo
  Maximum Phytotoxicity: 7%
H89A × M4M12; [5]
  Maximum Phytotoxicity: 4%
H89A × M4M11; [5]
  Maximum Phytotoxicity: 6%
H89A × M4M7; [5]
  Maximum Phytotoxicity: 4%
[1]; [5]
  Maximum Phytotoxicity: 100%
[2]; [5]
  Maximum Phytotoxicity: 100%
[3]
  resistance/tolerance of the mutants: to a lesser extent than with tribenuron-methyl
BC2-M3M12; 4 g a.i./ha
  Efficacy on BC2-M3M12: 18
[4]; 4 g a.i./ha
  Efficacy on H89A × RHA274: 100
BC3-M4M7; in vivo
  Maximum Phytotoxicity: 8%
BC2-M3M11; 4 g a.i./ha
  Efficacy on BC2-M3M11: 8

Source: US6822146B2, “Sulfonylurea-tolerant sunflower line M7” (priority 2000, dated 2004)
